Converted amounts (≈) assume the structure as drawn.
Assays:
[1] = molecular target: T1, PDI A3 (Homo sapiens, UniProt P30101); assay: PDI A3 inhibition, insulin turbidimetric assay; assay type: biochemical; details: 10 ug/ml PDI A3, incubated 60 min at 37° C., turbidity at 650 nm; read-out: Inhibition of PDI A3 (EC 50)
T1 construct: purchased Mybiosource; host or cells: E. coli
T1 sequence (P30101 25-505): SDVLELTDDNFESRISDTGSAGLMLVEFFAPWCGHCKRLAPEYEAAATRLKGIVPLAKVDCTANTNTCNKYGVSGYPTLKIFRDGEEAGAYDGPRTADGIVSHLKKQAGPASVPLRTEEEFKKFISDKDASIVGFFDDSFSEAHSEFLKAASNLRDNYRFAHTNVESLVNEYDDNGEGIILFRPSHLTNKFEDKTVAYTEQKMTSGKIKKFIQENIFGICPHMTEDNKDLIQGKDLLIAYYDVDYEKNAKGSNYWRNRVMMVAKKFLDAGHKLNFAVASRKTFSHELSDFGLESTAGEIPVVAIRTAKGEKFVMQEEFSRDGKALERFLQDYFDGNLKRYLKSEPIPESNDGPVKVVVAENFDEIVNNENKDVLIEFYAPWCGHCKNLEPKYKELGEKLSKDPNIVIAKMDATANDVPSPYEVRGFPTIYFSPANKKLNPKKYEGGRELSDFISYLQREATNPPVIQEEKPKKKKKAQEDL
Summary of the method: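 Recombinant E. coli-expressed PDIA3 (10 ug/ml) was preincubated with compound for 60 min at 37° C in 0.1 mM phosphate buffer pH 7.6, 1 mM EDTA, 0.087 mM DTT. Reaction was started with insulin (0.15 mM final) and DTT (0.174 mM final). Insulin reduction was followed as turbidity at 650 nm over 120-s recordings, against reference samples without PDI.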

[2] = system: MCF-7; assay: MTT antiproliferative assay, 48 h, MCF-7; assay type: cell-based, human; details: 48-hour exposition, read-out: Cytotoxicity, IC50, μM MCF-7
[3] = system: MCF-7; assay: MTT antiproliferative assay, 72 h, with or without estradiol, MCF-7; assay type: cell-based, human
Protocol: Anticancer activity of selected compounds of invention, PDI A3-inhibitors has been also tested in vitro in antiproliferative assay in normoxic and hypoxic conditions as well in estrogen-stimulated cancer cells. In the experiment, cells were seeded on 96-well plates (Sarstedt, Germany) in appropriate culture medium at a density of 10^5 cells/mL 24 h before adding the tested compounds. Cells were treated with each compound in four concentrations in the range 0.1-100 μg/mL. […] After 72 h of compound treatment at 37° C., 5% CO2 humid atmosphere and in wo different oxygen level conditions: 21%—normal and <1%—hypoxia. In some experiments the MDA-MB-231 and MCF-7 cells were seeded with or without 200 nM estradiol and after 24 h the tested compounds were added. A previously described sulforhodamine B antiproliferative assay was used with minor modifications (Skehan P et al., 1990). Briefly, cells were fixed with 50 μL/well of 50% (w/v) trichloroacetic acid (Avantor Performance Materials, Gliwice, Poland). After 1 h incubation, plates were washed several times with tap water and 50 μL of 0.4% (w/v) solution of sulforhodamine B (Sigma-Aldrich, Germany) in 1% (v/v) acetic acid (Avantor Performance Materials, Gliwice, Poland) was added to each well. After 30 min incubation at room temperature, unbound dye was washed out with 1% (v/v) acetic acid, whereas bound dye was solubilized with 10 mM unbuffered TRIS (Avantor Performance Materials, Gliwice, Poland) solution. The entire procedure was performed using a BioTek EL-406 washing station (BioTek Instruments, USA). After additional 30 min, absorbance was read using a Biotek Hybrid H4 reader (BioTek Instruments, USA) at 540 nm wavelength. MTT assay was used alternatively for HL-60 cell line and in the experiment in which estrogens are added (specified in the table legend). Absorbance was measured using a Biotek Hybrid H4 reader at 570 nm wavelength for MTT assay.
Compounds at each concentration were tested in triplicate in a single experiment and each experiment was repeated at least three times independently. Results are presented as mean IC50±SD.

## COC(=O)C1CN1S(=O)(=O)c1ccc2c(C=O)c(N(C)C)ccc2c1 (centres unmarked) [Compound C-3390, Methyl 1-[[6-(dimethylamino)-5-formyl-2-naphthyl]sulfonyl]aziridine-2-calboxylate]
[1]
  EC50: 4 µM
[2]
  IC50: 20 ± 0.3 µM
[3]; estradiol (200 nM), Table 4
  Lower sensitivity after treatment with estradiol in MCF-7: not observed
[3]; not pretreated with estradiol, 72 hours exposition, MTT
  IC50 [μg/ml] MCF-7 normal: 3.2 ± 0.3 µg/mL (≈ 8.83 µM)
[3]; pretreated with 200 nM estradiol, 72 hours exposition, MTT
  IC50 [μg/ml] MCF-7 +estradiol: 3.4 ± 0.3 µg/mL (≈ 9.38 µM)

— patent US20230069886A1, “AROMATIC SULPHONAMIDES DERIVATIVES THAT INHIBITS PDI A3, THEIR SYNTHESIS AND USE” (Uniwersytet Jagiellonski, priority 2020, published 2023)
